According to ChEMBL document CHEMBL1201862, “PubChem BioAssay data set” (2004):
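Test compounds were applied to cells in 96-well plates for 48 hours at 5 doses. Here, GI50 denotes the concentration required for 50% inhibition of growth.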 Calls of active or inactive are those of the source. Cut-off read from the data, not from the text of the source: active = GI50 up to about 1.1 µM and inactive = higher.

Key:
Assay in all cases: inhibition of tumour cell growth, NCI panel, 48 h
[1] = tested on: HOP-18
[2] = tested on: A498
[3] = tested on: HL-60
[4] = tested on: M19-MEL
[5] = tested on: OVCAR-4
[6] = tested on: DMS-273
[7] = tested on: SF-295
[8] = tested on: SNB-19
[9] = tested on: NCI-H522
[10] = tested on: UO-31
[11] = tested on: MOLT-4
[12] = tested on: SK-MEL-5
[13] = tested on: M14
[14] = tested on: LXFL 529
[15] = tested on: ACHN
[16] = tested on: K562
[17] = tested on: A549
[18] = tested on: CAKI-1
[19] = tested on: HCT-15
[20] = tested on: LOX IMVI
[21] = tested on: NCI-H226
[22] = tested on: UACC-62
[23] = tested on: SN12C
[24] = tested on: IGROV-1
[25] = tested on: TK-10
[26] = tested on: KM12
[27] = tested on: SF-268
[28] = tested on: Malme-3M
[29] = tested on: DMS-114
[30] = tested on: RXF 393
[31] = tested on: COLO 205
[32] = tested on: SK-OV-3
[33] = tested on: HT-29
[34] = tested on: SK-MEL-2
[35] = tested on: RPMI-8226
[36] = tested on: UACC-257
[37] = tested on: OVCAR-3
[38] = tested on: SNB-78
[39] = tested on: NCI-H23
[40] = tested on: SF-539
[41] = tested on: CCRF-CEM
[42] = tested on: U-251
[43] = tested on: 786-0
[44] = tested on: OVCAR-5
[45] = tested on: SNB-75
[46] = tested on: SW-620
[47] = tested on: NCI-H460
[48] = tested on: SK-MEL-28
[49] = tested on: HOP-62
[50] = tested on: KM-20L2
[51] = tested on: HCT-116
[52] = tested on: OVCAR-8
[53] = tested on: HCC 2998
[54] = tested on: XF498
[55] = tested on: EKVX
[56] = tested on: HOP-92
[57] = tested on: SR
[58] = tested on: DLD-1

Question: Which results are given for OC12CCCCCC1(N1CCOCC1)c1ccccc12 (stereo unspecified)?
Answer: GI50 [1]: > 100 µM (inactive); GI50 [2]: > 100 µM (inactive); GI50 [3]: > 100 µM (inactive); GI50 [4]: > 100 µM (inactive); GI50 [5]: > 100 µM (inactive); GI50 [6]: > 100 µM (inactive); GI50 [7]: > 100 µM (inactive); GI50 [8]: > 100 µM (inactive); GI50 [9]: > 100 µM (inactive); GI50 [10]: > 100 µM (inactive); GI50 [11]: > 100 µM (inactive); GI50 [12]: > 100 µM (inactive); GI50 [13]: > 100 µM (inactive); GI50 [14]: > 100 µM (inactive); GI50 [15]: > 100 µM (inactive); GI50 [16]: > 100 µM (inactive); GI50 [17]: > 100 µM (inactive); GI50 [18]: > 100 µM (inactive); GI50 [19]: > 100 µM; GI50 [20]: > 100 µM (inactive); GI50 [21]: > 100 µM (inactive); GI50 [22]: > 100 µM (inactive); GI50 [23]: > 100 µM (inactive); GI50 [24]: > 100 µM (inactive); GI50 [25]: > 100 µM (inactive); GI50 [26]: > 100 µM (inactive); GI50 [27]: > 100 µM (inactive); GI50 [28]: > 100 µM (inactive); GI50 [29]: > 100 µM (inactive); GI50 [30]: > 100 µM (inactive); GI50 [31]: > 100 µM (inactive); GI50 [32]: > 100 µM (inactive); GI50 [33]: > 100 µM (inactive); GI50 [34]: > 100 µM (inactive); GI50 [35]: > 100 µM (inactive); GI50 [36]: > 100 µM (inactive); GI50 [37]: > 100 µM (inactive); GI50 [38]: > 100 µM (inactive); GI50 [39]: > 100 µM (inactive); GI50 [40]: > 100 µM (inactive); GI50 [41]: > 100 µM (inactive); GI50 [42]: > 100 µM (inactive); GI50 [43]: > 100 µM (inactive); GI50 [44]: > 100 µM (inactive); GI50 [45]: > 100 µM (inactive); GI50 [46]: > 100 µM (inactive); GI50 [47]: > 100 µM (inactive); GI50 [48]: > 100 µM (inactive); GI50 [49]: > 100 µM (inactive); GI50 [50]: > 100 µM (inactive); GI50 [51]: > 100 µM (inactive); GI50 [52]: > 100 µM (inactive); GI50 [53]: > 100 µM (inactive)

Question: Which results are given for COC(=O)[C@H]1C=C[C@@H](C)n2c(=O)c3ccccc3c(=O)n21?
Answer: GI50 [54]: > 100 µM (inactive); GI50 [2]: > 100 µM (inactive); GI50 [3]: > 100 µM (inactive); GI50 [4]: > 100 µM (inactive); GI50 [55]: > 100 µM (inactive); GI50 [5]: > 100 µM (inactive); GI50 [6]: > 100 µM (inactive); GI50 [7]: > 100 µM (inactive); GI50 [56]: > 100 µM (inactive); GI50 [8]: > 100 µM (inactive); GI50 [9]: > 100 µM (inactive); GI50 [10]: > 100 µM (inactive); GI50 [11]: > 100 µM (inactive); GI50 [12]: > 100 µM (inactive); GI50 [13]: > 100 µM (inactive); GI50 [14]: > 100 µM (inactive); GI50 [15]: > 100 µM (inactive); GI50 [16]: > 100 µM (inactive); GI50 [17]: > 100 µM (inactive); GI50 [18]: > 100 µM (inactive); GI50 [19]: > 100 µM; GI50 [20]: > 100 µM (inactive); GI50 [21]: > 100 µM (inactive); GI50 [57]: > 100 µM (inactive); GI50 [23]: > 100 µM (inactive); GI50 [24]: > 100 µM (inactive); GI50 [25]: > 100 µM (inactive); GI50 [26]: > 100 µM (inactive); GI50 [27]: > 100 µM (inactive); GI50 [58]: > 100 µM (inactive); GI50 [28]: > 100 µM (inactive); GI50 [29]: > 100 µM (inactive); GI50 [30]: > 100 µM (inactive); GI50 [31]: > 100 µM (inactive); GI50 [32]: > 100 µM (inactive); GI50 [33]: > 100 µM (inactive); GI50 [34]: > 100 µM (inactive); GI50 [35]: > 100 µM (inactive); GI50 [36]: > 100 µM (inactive); GI50 [37]: > 100 µM (inactive); GI50 [38]: > 100 µM (inactive); GI50 [39]: > 100 µM (inactive); GI50 [40]: > 100 µM (inactive); GI50 [41]: > 100 µM (inactive); GI50 [42]: > 100 µM (inactive); GI50 [43]: > 100 µM (inactive); GI50 [44]: > 100 µM (inactive); GI50 [45]: > 100 µM (inactive); GI50 [46]: > 100 µM (inactive); GI50 [47]: > 100 µM (inactive); GI50 [48]: > 100 µM (inactive); GI50 [49]: > 100 µM (inactive); GI50 [50]: > 100 µM (inactive); GI50 [51]: > 100 µM (inactive); GI50 [52]: > 100 µM (inactive); GI50 [53]: > 100 µM (inactive)

Question: What does the source list for COc1ccc(C2S/C(=C\c3ccc([N+](=O)[O-])cc3)C(=O)N2NC(=O)Cc2ccccc2)cc1 (stereo unspecified)?
Answer: GI50 [1]: > 100 µM (inactive); GI50 [2]: > 100 µM (inactive); GI50 [3]: 92.9 µM (inactive); GI50 [4]: > 100 µM (inactive); GI50 [5]: > 100 µM (inactive); GI50 [6]: > 100 µM (inactive); GI50 [7]: > 100 µM (inactive); GI50 [56]: > 100 µM (inactive); GI50 [9]: > 100 µM (inactive); GI50 [10]: > 100 µM (inactive); GI50 [11]: 87.3 µM (inactive); GI50 [12]: > 100 µM (inactive); GI50 [13]: > 100 µM (inactive); GI50 [14]: > 100 µM (inactive); GI50 [15]: > 100 µM (inactive); GI50 [16]: > 100 µM (inactive); GI50 [17]: > 100 µM (inactive); GI50 [18]: > 100 µM (inactive); GI50 [19]: 79.8 µM; GI50 [20]: > 100 µM (inactive); GI50 [21]: > 100 µM (inactive); GI50 [57]: > 100 µM (inactive); GI50 [22]: 85.9 µM (inactive); GI50 [23]: > 100 µM (inactive); GI50 [24]: > 100 µM (inactive); GI50 [25]: > 100 µM (inactive); GI50 [26]: > 100 µM (inactive); GI50 [27]: > 100 µM (inactive); GI50 [58]: > 100 µM (inactive); GI50 [28]: > 100 µM (inactive); GI50 [29]: 45.8 µM (inactive); GI50 [30]: 25.6 µM (inactive); GI50 [31]: > 100 µM (inactive); GI50 [32]: > 100 µM (inactive); GI50 [33]: > 100 µM (inactive); GI50 [34]: > 100 µM (inactive); GI50 [35]: > 100 µM (inactive); GI50 [36]: 87.5 µM (inactive); GI50 [39]: > 100 µM (inactive); GI50 [40]: > 100 µM (inactive); GI50 [41]: 82.8 µM (inactive); GI50 [42]: 79.3 µM (inactive); GI50 [43]: > 100 µM (inactive); GI50 [44]: > 100 µM (inactive); GI50 [45]: 53.8 µM (inactive); GI50 [46]: > 100 µM (inactive); GI50 [47]: > 100 µM (inactive); GI50 [48]: > 100 µM (inactive); GI50 [49]: > 100 µM (inactive); GI50 [51]: 66.4 µM (inactive); GI50 [52]: > 100 µM (inactive)

Question: Which results are given for O=C1OCc2cccc3c2-c2c1cccc2C(=O)OC3?
Answer: GI50 [1]: > 100 µM (inactive); GI50 [3]: > 100 µM (inactive); GI50 [4]: > 100 µM (inactive); GI50 [55]: > 100 µM (inactive); GI50 [5]: > 100 µM (inactive); GI50 [7]: > 100 µM (inactive); GI50 [56]: 38.5 µM (inactive); GI50 [8]: > 100 µM (inactive); GI50 [10]: > 100 µM (inactive); GI50 [11]: > 100 µM (inactive); GI50 [12]: > 100 µM (inactive); GI50 [13]: > 100 µM (inactive); GI50 [16]: > 100 µM (inactive); GI50 [18]: > 100 µM (inactive); GI50 [19]: > 100 µM; GI50 [57]: > 100 µM (inactive); GI50 [22]: > 100 µM (inactive); GI50 [24]: > 100 µM (inactive); GI50 [25]: > 100 µM (inactive); GI50 [26]: > 100 µM (inactive); GI50 [27]: > 100 µM (inactive); GI50 [58]: > 100 µM (inactive); GI50 [28]: > 100 µM (inactive); GI50 [29]: > 100 µM (inactive); GI50 [30]: > 100 µM (inactive); GI50 [31]: > 100 µM (inactive); GI50 [32]: > 100 µM (inactive); GI50 [33]: > 100 µM (inactive); GI50 [34]: > 100 µM (inactive); GI50 [35]: > 100 µM (inactive); GI50 [37]: > 100 µM (inactive); GI50 [38]: > 100 µM (inactive); GI50 [39]: > 100 µM (inactive); GI50 [40]: > 100 µM (inactive); GI50 [42]: > 100 µM (inactive); GI50 [48]: > 100 µM (inactive); GI50 [49]: > 100 µM (inactive); GI50 [50]: > 100 µM (inactive); GI50 [51]: > 100 µM (inactive); GI50 [52]: > 100 µM (inactive); GI50 [53]: > 100 µM (inactive)
